Consider two compounds from patent publication US20090012009A1, “Composition and Method for Treating Inflammatory Disease” (priority 2007, published 2009).

SMILES strings stand for the structures.

The test system of test [1] is FR-β+ activated macrophages. The experiment in a line: 99mTc-EC20 biodistribution in spleens and livers of arthritic rats. Particulars: 4 h after i.p. 99mTc-EC20 (67 nmol/kg); versus PBS-treated group. It is filed as in vivo, rat. As for the experimental part: (§1) To compare the efficacies of the various folate-hapten conjugates in treating RA, arthritic rats were injected i.p. 5×/week with either: 1) vehicle alone (PBS), 2) 100 nmol/kg of folate-FITC, 3) 30 nmol/kg folate-DNP1, 4) 200 nmol/kg folate-DNP1, 5) 30 nmol/kg folate-DNP2, 6) 200 nmol/kg folate-DNP2, 7) 30 nmol/kg folate-DNP3, 8) 200 nmol/kg folate-DNP3, 9) 30 nmol/kg folate-TNP, or 10) 200 nmol/kg folate-TNP. Paw volumes, arthritis scores, spleen enlargement, bone degradation, and the biodistribution of FR+macrophages were then quantitated as a function of time during therapy, as described below.
Paw volumes were measured 2×/week by multiplying length, height, and width of the non-injected hind paw (Paulos et al., 2006). […] Spleen enlargement was assessed 25 days after initial treatment by euthanizing the animal and measuring the weight of the resected organs. Bone degradation of the non-injected hind paw was evaluated by x-ray radiography in one representative rat from each hapten group treated at 200 nmol/kg folate-hapten conjugate. The biodistribution of FR+ macrophages in each treatment group was also quantified using the FR-targeted radioimaging agent, ^99mTc-EC20, which was prepared as described previously (Turk et al., 2002). Briefly, each rat was injected i.p. with 500 μCi of radioactivity at a dose of 67 nmol/kg of EC20. […]

The test system of test [2] is arthritic rats. The experiment in a line: Paw volumes of non-injected hind paws, adjuvant-induced arthritis in rats. The following applies: i.p. 5×/week, 30 or 200 nmol/kg (folate-FITC 100 nmol/kg). In kind it is in vivo, rat. As for the experimental part:
(§2) Experimental adjuvant-induced arthritis was induced according to a previously described method (Paulos et al., 2006; van Eden et al., 1996). Briefly, adjuvant was prepared by adding finely ground heat-killed Mycobacterium butyricum(Difco Laboratories, MI, USA) in mineral oil (Sigma-Aldrich, MO, USA) at a final concentration of 1 mg/ml. The adjuvant was kept under constant stirring to ensure homogenous distribution of the mycobacterial particles. Immunized rats were anesthetized with ketamine and xylazine (100 mg/kg and 13 mg/kg, respectively) and injected in the right hind paw with 100 μl of the mycobacterial suspension. Paw inflammation was monitored daily until the first symptoms of RA appeared on the left, non-injected hind paw. […]
as §1, with “below. […]” for “below.”

The target of a further test is T1, hFR-β (Homo sapiens, UniProt P14207).
T1 construct: expressed in transfected cells; host or cells: CHO-β cells (CHO cells expressing hFR-β)
The experiment in a line: Relative binding affinity of folate-hapten conjugates, displacement of 3H-folic acid from CHO-β cells. Particulars: 10 nM 3H-folic acid. On the procedure:
The relative binding affinities of folate-hapten conjugates to hFR-β were examined using a previously described method (Reddy et al., 2004). CHO-β cells expressing hFR-β were seeded on 48-well plates at 70% confluence and cultured at 37° C. in folate-deficient RPMI1640 medium (Invitrogen, CA, USA) supplemented with 1× penicillin/streptomycin (Gibco, Calif., USA) and 10% fetal bovine serum (FBS) (Atlanta Biologicals, GA, USA) in a 5% CO2 humidified incubator. Twenty-four hours later, cells were washed twice with PBS (pH 7.4), after which a 10 nM solution of ^3H-folic acid (GE Healthcare, NJ, USA) was added with increasing concentrations (10^−10M to 10^−5M) of either folate-FITC, folate-DNP1, folate-DNP2, folate-DNP3, or folate-TNP in cell culture medium. Cells were incubated at 37° C. for 1 h and washed 3× with 0.5 ml PBS. 0.5 ml of 1.0% sodium dodecyl sulfate (SDS) in PBS was added to each well, and after 5 min, cell lysates were collected and transferred to vials containing scintillation cocktail and counted for radioactivity. Relative binding affinity was defined as the molar ratio required for displacement of 50% of bound ^3H-folic acid from the cell surface.
On the technique in general: Displacement assays read how much labelled ligand stays bound in the presence of the test substance.

For test [3], the system named is arthritic rats. The experiment in a line: Arthritis scores, adjuvant-induced arthritis in rats. Particulars: i.p. 5×/week; scale 0-4, scored 2×/week. It is filed as in vivo, rat. As for the experimental part: as §2
as §1, with “below. […]” for “below.”

Test [4] relates to arthritic rats. The following applies: previous dosing studies; cited from earlier work.

T1 sequence (P14207 17-230): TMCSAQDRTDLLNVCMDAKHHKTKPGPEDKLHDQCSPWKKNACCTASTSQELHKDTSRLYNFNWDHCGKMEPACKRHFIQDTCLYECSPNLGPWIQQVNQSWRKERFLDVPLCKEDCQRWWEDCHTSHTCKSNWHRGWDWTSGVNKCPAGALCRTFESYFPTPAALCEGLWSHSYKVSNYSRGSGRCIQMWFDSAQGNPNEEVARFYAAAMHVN

For `Nc1nc2ncc(CNc3ccc(C(=O)N[C@H](CCC(=O)N[C@H](CCCCNc4c([N+](=O)[O-])cc([N+](=O)[O-])cc4[N+](=O)[O-])C(=O)O)C(=O)O)cc3)nc2c(=O)[nH]1` [folate-TNP], the “uptake of 99mTc-EC20 in spleens and livers” value in test [1] is “folate-DNP1 and folate-DNP2 appeared to be superior”. The “paw swelling (volume changes in non-injected hind paws)” value in the test on arthritic rats [2] is reported as “more effective than any of the folate-DNP conjugates, but similar in potency to folate-FITC”. Moreover, the “rank order of binding affinity of the folate-hapten conjugates” value at hFR-β was “folate-DNP3>folate-DNP2>folate-DNP 1>folate-TNP>folate-FITC”. In addition, the “relative potencies in preventing the increase in arthritis score” value in the test with arthritic rats [3] is listed as “TNP=FITC>DNP1>DNP2>DNP3”.
With `Nc1nc2ncc(CNc3ccc(C(=O)NC(CCC(=O)NCCNC(=S)Nc4ccc(C(=O)O)c(-c5c6ccc(=O)cc-6oc6cc(O)ccc56)c4)C(=O)O)cc3)nc2c(=O)[nH]1` (stereo not shown) [folate-FITC, reference compound], the “daily dose giving optimal responses” value in the test with arthritic rats [4] is listed as 100 nmol/kg. At hFR-β, the “rank order of binding affinity of the folate-hapten conjugates” value is on record as “folate-DNP3>folate-DNP2>folate-DNP 1>folate-TNP>folate-FITC”. In addition, in the test on arthritic rats [3], the “relative potencies in preventing the increase in arthritis score” value is “TNP=FITC>DNP1>DNP2>DNP3”.
